Measured values from patent US20260306460A1, “COMPOSITION FOR REMOVING AND INHIBITING SENESCENT CELLS, AND USES THEREOF” (LIFECEUTIX CO., LTD., priority 2023, published 2026).

Assays:
senescent human cells = assay: Viability of doxorubicin-induced senescent human cells (CellTiter-Glo), Example 11; type: cell-based; details: Homo sapiens, 0 μM = 100, read-out: Survival; for viability at […]: 3.3 μM
[1] = tested on: bleomycin-induced pulmonary fibrosis mice; assay: Bleomycin-induced pulmonary fibrosis mice, Example 31, Table 56; type: in vivo, mouse; details: untreated = 100%
Summary of the method: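 Mice with bleomycin-induced pulmonary fibrosis, untreated or given test compound, with vehicle-only controls. Lung tissue collected for RNA extraction and qRT-PCR analysis.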

[2] = tested on: carbon tetrachloride-induced liver fibrosis mice; assay: Carbon tetrachloride-induced liver fibrosis mice, Example 31, Table 57; type: in vivo, mouse; details: CCl4-induced liver fibrosis mice, untreated = 100%
Summary of the method: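 Mice with induced hepatic fibrosis received either the test compound or, as controls, an equal volume of vehicle solution alone. Once dosing ended, liver tissue was harvested and total RNA was isolated. cDNA was synthesized from this RNA, and quantitative RT-PCR was run on it to measure hepatic mRNA levels of the fibrosis- and senescence-related genes.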

[3] = tested on: HMGN1 secreted from senescent A549 cells; assay: HMGN1 secretion (ELISA) from senescent A549 cancer cells, Example 12; type: cell-based, human; details: senescent untreated = 100%; 30 μM; 90 μM for LX-305, 905, 1302, 1601, 1603, 2003, 2702, 2901, 3106; 270 μM for LX-1103, 2005, 2007;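 also: A549 cells made senescent by doxorubicin exposure, with DMSO-treated cells serving as the non-senescent control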
senescent A549 cells [4] = assay: Viability of senescent A549 cancer cells (CellTiter-Glo), Example 12; type: cell-based, human; details: Homo sapiens, A549, 0 μM = 100, read-out: Survival
naturally aged mice = assay: Anti-aging evaluation in naturally aged mice, Example 31, Table 55; type: in vivo, mouse; details: for Femur Ctsk mRNA / Kidney Agtr1a mRNA / Liver IL6 mRNA / Liver MMP3 mRNA / Liver p16 mRNA / Open Field Test Time in Center: untreated = 100%; for Heart Sur2a mRNA / Joint Col2a1 mRNA / Skin Col1a1 mRNA / Skin SDF1 mRNA: untreated = 1.0; for Muscle Mass: untreated 0.64 g; for Fat Mass: untreated 0.82 g; for Cataract incidence: untreated 83%;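 as to all read-outs here: Vehicle-dosed control mice received solution alone at matching volume, values compare test-compound-treated aged mice against that control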
senescent foreskin cells = assay: Survival of senescent human cells treated with supernatant (secreted fluid) from death-induced cells, Example 13; type: cell-based; details: Table 8; supernatant from dying senescent cells treated at 30, 90 or 270 μM (as Example 11); senescent treated cells
senescent cells = assay: Viability of senescent cells (CellTiter-Glo), Example 17, Table 13; details: doxorubicin-induced senescent cells, 0 μM = 100
[5] = tested on: HMGN1 secreted from senescent A549 cells; assay: HMGN1 secretion (ELISA) from senescent A549 cells, Example 18, Table 14; type: cell-based, human; details: doxorubicin-senescent A549, without test compound (DMSO) = 100%; 30 μM (LX-5211, LX-5433, LX-6530, LX-6800, LX-9105, LX-9118, LX-9131, LX-9136, LX-9302, LX-9321, LX-9565, LX-9602 at 90 μM; LX-9336 at 2.4 mM)
senescent A549 cells [6] = assay: Viability of senescent A549 cells (CellTiter-Glo), Example 18, Table 15; details: doxorubicin-induced senescent A549 cells, 0 μM = 100%

Row | Molecule | Lung p16 mRNA [1] | Col1a1 mRNA [1] | Liver p16 mRNA [2] | Col1a1 mRNA [2] | HMGN1 [3] [%] | Femur Ctsk mRNA (naturally aged mice) [%] | Heart Sur2a mRNA (naturally aged mice) [fold] | Joint Col2a1 mRNA (naturally aged mice) [fold] | Kidney Agtr1a mRNA (naturally aged mice) [%] | Liver IL6 mRNA (naturally aged mice) [%] | Liver MMP3 mRNA (naturally aged mice) [%] | Liver p16 mRNA (naturally aged mice) [%] | Open Field Test Time in Center (naturally aged mice) [%] | Skin Col1a1 mRNA (naturally aged mice) [Fold] | Skin SDF1 mRNA (naturally aged mice) [fold] | Muscle Mass (naturally aged mice) [g] | Fat Mass (naturally aged mice) [g] | Cataract incidence (naturally aged mice) [%] | Survival (senescent foreskin cells) | Survival (%) (senescent cells; 1.1 μM) | further results
1 | Cc1nnc(-c2cc(C(=O)N3CCC(c4ccc(C#N)cc4)CC3)c(C)cc2C2CCC2)[nH]1 [LX-305] | 62 (±3.5) % | 73 (±4.1) % | 64 (±2.3) % | 70 (±3.2) % | 227 | 73 | 1.8 | 2.6 | 73 | 61 | 78 | 69 | 157 | 1.7 | 1.9 | 0.66 | 0.91 | 75 | 89.5 | – | viability at 1.1 µM (senescent human cells; 1.1 μM): 101%; viability at […] (senescent human cells): 97.2%; viability at 10 µM (senescent human cells; 10 μM): 91%; viability at 30 µM (senescent human cells; 30 μM): 78%; viability at 90 µM (senescent human cells; 90 μM): 23.2%; viability at 1.1 µM (senescent A549 cells [4]; 1.1 μM): 99.2%; viability at […] (senescent A549 cells [4]; 3.3 μM): 93.8%; viability at 10 µM (senescent A549 cells [4]; 10 μM): 63.1%; viability at 30 µM (senescent A549 cells [4]; 30 μM): 41%; viability at 90 µM (senescent A549 cells [4]; 90 μM): 13.3%
2 | CCN(CC)C(=S)SSC(=S)N(CC)CC [LX-1601, Disulfiram] | 52 (±3.7) % | 63 (±4.6) % | 48 (±4.0) % | 50 (±2.0) % | 257 | 40 | 2.6 | 2.0 | 66 | 43 | 39 | 62 | 228 | 1.8 | 2.1 | 0.74 | 1.20 | 62 | 81.4 | – | viability at […] (senescent human cells): 90%
3 | O=C(NCc1ccncc1)C12CC3CC(C1)CC(c1ccc(Cl)cc1)(C3)C2 [LX-3106, Opaganib] | 67 (±4.3) % | 77 (±3.7) % | 81 (±6.5) % | 71 (±5.4) % | 236 | 76 | 1.6 | 2.0 | 83 | 71 | 85 | 76 | 193 | 1.3 | 1.3 | 0.72 | 0.88 | 71 | 72.6 | – | –
4 | C[C@H](N)C(=O)N1C[C@H](CCCB(O)O)[C@](N)(C(=O)O)C1 [LX-3107, Numidargistat] | 81 (±3.9) % | 68 (±5.1) % | 80 (±3.6) % | 69 (±8.0) % | 267 | 81 | 1.7 | 1.1 | 75 | 49 | 68 | 54 | 167 | 1.2 | 1.4 | 0.67 | 0.99 | 65 | 62.1 | – | –
5 | CC(=O)N[C@@H](Cc1c[nH]c2ccccc12)C(=O)N[C@@H](CCC(=O)C=[N+]=[N-])C(=O)OC(C)C [LX-3201, Sirpiglenastat] | 77 (±5.9) % | 73 (±3.8) % | 71 (±9.4) % | 82 (±8.2) % | 309 | 80 | 2.1 | 1.7 | 78 | 71 | 64 | 80 | 171 | 1.6 | 2.0 | 0.71 | 1.06 | 76 | 55.2 | – | –
6 | Cc1[nH]nc(C(F)(F)F)c1Cc1sc2c(c1C(=O)N1C[C@](C)(O)CO1)c(=O)n(C)c(=O)n2C(C)C [LX-3203] | 69 (±5.0) % | 64 (±4.5) % | 64 (±4.0) % | 66 (±4.5) % | 293 | 55 | 1.8 | 1.6 | 68 | 67 | 62 | 66 | 183 | 1.8 | 2.2 | 0.68 | 0.85 | 75 | 57.1 | – | –
7 | CCc1nc(C(N)=O)c(Nc2ccc(N3CCC(N4CCN(C)CC4)CC3)c(OC)c2)nc1NC1CCOCC1 [LX-3303, Gilteritinib] | 68 (±6.9) % | 78 (±5.1) % | 62 (±4.9) % | 65 (±6.2) % | 239 | 76 | 1.9 | 2.1 | 69 | 83 | 73 | 63 | 186 | 1.2 | 1.7 | 0.72 | 1.08 | 61 | 53.5 | – | –
8 | Alirocumab [LX-9562] | – | – | – | – | – | – | – | – | – | – | – | – | – | – | – | – | – | – | – | 97.0 | Survival (%) (senescent cells; 10 μM): 45.4%; Survival (%) (senescent cells; 30 μM): 14.0%; Survival (%) (senescent cells; […]): 97.3%; HMGN1 [5]: 269%; Survival (%) (senescent A549 cells [6]; 1.1 μM): 94.1%; Survival (%) (senescent A549 cells [6]; 10 μM): 51.8%; Survival (%) (senescent A549 cells [6]; 30 μM): 2.1%; Survival (%) (senescent A549 cells [6]; […]): 89.1%
9 | Dazdotuftide [LX-9601] | – | – | – | – | – | – | – | – | – | – | – | – | – | – | – | – | – | – | – | 96.9 | Survival (%) (senescent cells; 10 μM): 78.8%; Survival (%) (senescent cells; 30 μM): 30.2%; Survival (%) (senescent cells; […]): 89.8%; HMGN1 [5]: 209%; Survival (%) (senescent A549 cells [6]; 1.1 μM): 92.2%; Survival (%) (senescent A549 cells [6]; 10 μM): 69.1%; Survival (%) (senescent A549 cells [6]; 30 μM): 15.0%; Survival (%) (senescent A549 cells [6]; […]): 89.0%
10 | Evolocumab (antibody, chains of the INN, looked up, V domains shown, CAS 1256937-27-5) VH: EVQLVQSGAEVKKPGASVKVSCKASGYTLTSYGISWVRQAPGQGLEWMGWVSFYNGNTNYAQKLQGRGTMTTDPSTSTAYMELRSLRSDDTAVYYCARGYGMDVWGQGTTVTVSS VL: ESALTQPASVSGSPGQSITISCTGTSSDVGGYNSVSWYQQHPGKAPKLMIYEVSNRPSGVSNRFSGSKSGNTASLTISGLQAEDEADYYCNSYTSTSMVFGGGTKLTVL | – | – | – | – | – | – | – | – | – | – | – | – | – | – | – | – | – | – | – | 93.9 | Survival (%) (senescent cells; 10 μM): 58.2%; Survival (%) (senescent cells; 30 μM): 18.5%; Survival (%) (senescent cells; […]): 87.6%; HMGN1 [5]: 291%; Survival (%) (senescent A549 cells [6]; 1.1 μM): 97.5%; Survival (%) (senescent A549 cells [6]; 10 μM): 43.2%; Survival (%) (senescent A549 cells [6]; 30 μM): 5.3%
